pEC50: −log10 of the molar value.

In this test the target is T1, CCR(9) (Homo sapiens, UniProt P51686).
T1 construct: CCR(9)-expressing cells such as T cell line MOLT-4 cells; host or cells: MOLT-4 T cell line
T1 sequence (P51686 1-369): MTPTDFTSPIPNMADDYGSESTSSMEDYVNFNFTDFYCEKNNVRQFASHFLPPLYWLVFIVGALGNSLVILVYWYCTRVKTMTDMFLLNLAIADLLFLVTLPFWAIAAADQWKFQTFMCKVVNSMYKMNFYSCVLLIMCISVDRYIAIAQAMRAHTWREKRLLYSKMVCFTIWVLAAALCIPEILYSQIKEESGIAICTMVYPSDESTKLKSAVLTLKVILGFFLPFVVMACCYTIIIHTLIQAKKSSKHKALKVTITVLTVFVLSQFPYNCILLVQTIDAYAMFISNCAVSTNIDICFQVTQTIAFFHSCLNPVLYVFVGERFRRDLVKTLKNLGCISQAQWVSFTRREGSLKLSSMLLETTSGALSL
The test is described as follows: serum chemotaxis (serum migration) assay, MOLT-4 cells in human serum, TECK. It is filed as cell-based. The conditions noted are these: read-out: A2. As to the method: In vitro cell chemotaxis assays can be performed (but are not limited to this format) using the 96-well microchamber (called ChemoTX™). The ChemoTX™ system is well known to those skilled in the art as a type of chemotactic/cell migration instrument. In this assay, CCR(9)-expressing cells (such as MOLT-4) are first incubated with a compound of interest, such as a possible CCR(9) antagonist at increasing concentrations. Typically, fifty thousand cells per well are used, but the amount can range from 10^3-10^6 cells per well. The chemokine ligand (for example, CCR(9) ligand TECK, typically at 50 nM (but can range from 5-100 nM)), is placed at the lower chamber and the migration apparatus is assembled. Twenty microliters of test compound-treated cells are then placed onto the membrane. Migration is allowed to take place at 37° C. for a period of time, typically 2.5 hours for CCR(9). At the end of the incubation, the number of cells that migrated across the membrane into the lower chamber is then quantified. The efficacy of a compound as an inhibitor of chemokine-mediated cell migration can be calculated as an IC50 (the concentration needed to reduce cell migration by 50%) or IC90 (for 90% inhibition).
MOLT-4 cells were obtained from the American Type Culture Collection (Manassas, Va.) and cultured in RPMI tissue culture medium supplemented with 10% fetal calf serum (FCS) in a humidified 5% CO2 incubator at 37° C. Recombinant human chemokine proteins TECK was obtained from R&D Systems (Minneapolis, Minn.). ChemoTX® chemotaxis microchambers were purchased from Neuro Probe (Gaithersburg, Md.). CyQUANT® cell proliferation kits were purchased from Molecular Probes (Eugene, Oreg.). Calcium indicator dye Fluo-4 AM was purchased from Molecular Devices (Mountain View, Calif.).
A serum chemotaxis assay was used to determine the efficacy of potential receptor antagonists at blocking the migration mediated through chemokine receptors, such as CCR(9). This assay was performed using the ChemoTX® microchamber system with a 5-μm pore-sized polycarbonate membrane. MOLT-4 cells were collected by centrifugation at 400×g at room temperature, then suspended at 50 million/ml in human serum, containing 50 mM HEPES (final pH of 7.2). The compound being tested or an equivalent volume of its solvent (DMSO) was then added to the cell/serum mixture at a final DMSO concentration of 0.125% (v/v), and this mixture was then incubated together at 37° C. for one hour. Separately, recombinant human TECK was diluted with chemotaxis buffer (HBSS+0.1% BSA), generally spanning a range from 0.1 nM to 500 nM, after which 29 μl of diluted chemokine was placed in the lower wells of the ChemoTX® plate. The 5-μm (pore size) polycarbonate membrane was placed onto the plate, and 20 μL of the cell/compound mixture was transferred onto each well of the membrane. The plates were incubated at 37° C. for 90 minutes, after which the polycarbonate membranes were removed and 5 μl of the DNA-intercalating agent CyQUANT (Invitrogen, Carlsbad, Calif.) was added to the lower wells. The amount of fluorescence, corresponding to the number of migrated cells, was measured using a Spectrafluor Plus plate reader (TECAN, San Jose, Calif.).
The A2 values were calculated from the following equation, comparing the efficacy of the test compound with that of the DMSO-only control at equi-active chemokine levels:
Log(A2)=log [drug(M)]−log [(A′/A)−1]
where A reflects the potency of the agonist in the absence of antagonist and […] reflects the potency of the agonist in the presence of antagonist at a given concentration of drug ([drug(M)]).
With `CC(C)(C)c1ccc(S(=O)(=O)Nc2cc(C(F)(F)F)nn2-c2cccc3ncccc23)cc1`, the pEC50 is 5.60 to 6.30.
For `Cc1cc(NS(=O)(=O)c2ccc(OCC(C)C)cc2)n(-c2cccc3ncccc23)n1`, the pEC50 was below 5.60.
As for `Cc1cc(NS(=O)(=O)c2ccc(C(C)(C)C)cc2)n(-c2cccc3cnccc23)n1`, the figure is 5.60 to 6.30; as for `Cc1ccc2c(-n3nc(C)cc3NS(=O)(=O)c3ccc(C(C)(C)C)cc3)cccc2n1`, above 6.30; as for `Cc1cc(NS(=O)(=O)c2ccc(C(C)C)cc2)n(-c2cccc3ncccc23)n1`, 5.60 to 6.30.
In the case of `Cc1cc(NS(=O)(=O)c2ccc(OC(F)(F)F)cc2)n(-c2cccc3ncccc23)n1` it was 5.60 to 6.30; in that of `CCC(C)(C)c1ccc(S(=O)(=O)Nc2cc(C)nn2-c2cccc3ncccc23)cc1`, 5.60 to 6.30.
Take `CC(C)c1ccc(S(=O)(=O)Nc2cc(C(F)F)nn2-c2cccc3ncccc23)cc1`: the pEC50 is 5.60 to 6.30.
In the case of `CC(C)(C)c1ccc(S(=O)(=O)Nc2cc(C#N)nn2-c2cccc3ncccc23)cc1` it was 5.60 to 6.30; in that of `CC(C)(C)c1ccc(S(=O)(=O)Nc2cc(CF)nn2-c2cccc3ncccc23)cc1`, above 6.30.
As for `CC(C)(C)c1ccc(S(=O)(=O)Nc2ccnn2-c2cccc3ncccc23)cc1`, the figure is below 5.60; as for `CC(C)Oc1ccc(S(=O)(=O)Nc2cc(CF)nn2-c2cccc3ncccc23)cc1`, 5.60 to 6.30; as for `Cc1cc(NS(=O)(=O)c2ccc(C(C)(C)C)cc2)n(-c2nccc3ccccc23)n1`, 5.60 to 6.30.
Take `COc1ccc(-n2nc(C)cc2NS(=O)(=O)c2ccc(C(C)(C)C)c(F)c2)c2cccnc12`: the pEC50 is above 6.30.
As to `Cc1cc(NS(=O)(=O)c2ccc(OC(C)C)cc2)n(-c2cccc3cnccc23)n1`, the pEC50 was 5.60 to 6.30.
In the case of `CC(C)c1ccc(S(=O)(=O)Nc2cc(C(F)(F)F)nn2-c2cccc3cnccc23)cc1` it was 5.60 to 6.30; in that of `CC(C)(C)c1ccc(S(=O)(=O)Nc2cc(C(F)F)nn2-c2cccc3ncccc23)cc1`, above 6.30.
As for `CC(C)Oc1ccc(S(=O)(=O)Nc2cc(C(F)(F)F)nn2-c2cccc3cnccc23)cc1`, the figure is 5.60 to 6.30.
In the case of `CC(C)Oc1ccc(S(=O)(=O)Nc2cc(C(F)F)nn2-c2cccc3ncccc23)cc1` it was above 6.30; in that of `COCc1cc(NS(=O)(=O)c2ccc(C(C)(C)C)cc2)n(-c2cccc3ncccc23)n1`, above 6.30; in that of `Cc1cc(NS(=O)(=O)c2ccc(C(C)(C)C)cc2)n(-c2ccc(Cl)c3ncccc23)n1`, above 6.30.
As to `Cc1cc(NS(=O)(=O)c2ccc(C(C)(C)C)cc2F)n(-c2cccc3ncccc23)n1`, the pEC50 is 5.60 to 6.30.
In the case of `Cc1cc(NS(=O)(=O)c2ccc(C(C)(C)C)cc2)n(-c2cccc3c(N)nccc23)n1` it was 5.60 to 6.30; in that of `Cc1cc(NS(=O)(=O)c2ccc(C(C)(C)C)cc2)n(-c2cccc3nc(N)ccc23)n1`, above 6.30.
As for `Cc1cc(NS(=O)(=O)c2ccc(C(C)(C)C)cc2)n(-c2nncc3ccccc23)n1`, the figure is 5.60 to 6.30; as for `Cc1cc(NS(=O)(=O)c2ccc(C(C)(C)C)cc2)n(-c2ccnc3ccccc23)n1`, 5.60 to 6.30; as for `Cc1cc(NS(=O)(=O)c2ccc(C(C)C)cc2)n(-c2cccc3cnccc23)n1`, 5.60 to 6.30.
As to `Cc1cc(NS(=O)(=O)c2ccc(C(C)(C)C)cc2)n(-c2cncc3ccccc23)n1`, the pEC50 was 5.60 to 6.30.
In the case of `CC(C)c1ccc(S(=O)(=O)Nc2cc(C(F)(F)F)nn2-c2cccc3ncccc23)cc1` it was 5.60 to 6.30.
As for `Cc1cc(NS(=O)(=O)c2ccc(C(C)(C)C)cc2)n(-c2nccc3ncccc23)n1`, the figure is 5.60 to 6.30.
In the case of `CC(C)Oc1ccc(S(=O)(=O)Nc2cc(C(F)(F)F)nn2-c2cccc3ncccc23)cc1` it was below 5.60.
With `Cc1cc(NS(=O)(=O)c2ccc(C(C)(C)C)cc2)n(-c2n[nH]c(=O)c3ccccc23)n1`, the pEC50 was 5.60 to 6.30.
Consider `Cc1cc(NS(=O)(=O)c2ccc(C(C)(C)C)cc2)n(-c2ccc(C)c3ncccc23)n1`, for which the pEC50 is 5.60 to 6.30.
In the case of `Cc1cc(NS(=O)(=O)c2ccc(C(C)(C)C)cc2)n(-c2cc(N)nc3ccccc23)n1` it was 5.60 to 6.30; in that of `COc1cnc(-n2nc(C)cc2NS(=O)(=O)c2ccc(C(C)(C)C)cc2)c2ccccc12`, 5.60 to 6.30; in that of `Cc1cc(NS(=O)(=O)c2ccc(C(C)(C)C)cc2)n(-c2cnnc3ccccc23)n1`, 5.60 to 6.30.
Regarding `Cc1cc(NS(=O)(=O)c2ccc(C(C)(C)C)cc2)n(-c2cnc(N)c3ccccc23)n1`, the pEC50 is 5.60 to 6.30.
As for `Cc1cc(NS(=O)(=O)c2ccc(C(C)(C)C)cc2)n(-c2ccnc3c(F)cccc23)n1`, the figure is 5.60 to 6.30.
In the case of `Cc1cc(NS(=O)(=O)c2ccc(C(C)(C)C)c(F)c2)n(-c2cccc3ncccc23)n1` it was above 6.30.
In the case of `Cc1cc(NS(=O)(=O)c2ccc(C(C)(C)C)cc2)n(-c2ncc(Cl)c3ccccc23)n1` it was below 5.60.
As for `CC(C)(C)c1ccc(S(=O)(=O)Nc2cc(C(F)F)nn2-c2cccc3ncccc23)cc1F`, the pEC50 was 5.60 to 6.30.
`Cc1cc(-n2nc(C)cc2NS(=O)(=O)c2ccc(C(C)(C)C)cc2)c2ccccc2n1`: the pEC50 is 5.60 to 6.30.
`Cc1cc(NS(=O)(=O)c2ccc(C(C)(C)C)c(F)c2)n(-c2ccc(N)c3ncccc23)n1`: the pEC50 is 5.60 to 6.30.
With `Cc1cc(NS(=O)(=O)c2ccc(C(C)(C)C)cc2)n(-c2ccnc3cc(F)ccc23)n1`, the pEC50 is 5.60 to 6.30.
In the case of `CC(C)(C)c1ccc(S(=O)(=O)Nc2cc(CF)nn2-c2cccc3ncccc23)cc1F` it was above 6.30; in that of `Cc1cc(NS(=O)(=O)c2ccc(C(C)(C)C)cc2)n(-c2cccc3c2ccc[n+]3[O-])n1`, 5.60 to 6.30; in that of `Cc1cc(NS(=O)(=O)c2ccc(C(C)(C)C)c(Cl)c2)n(-c2cccc3ncccc23)n1`, 5.60 to 6.30.
On to `Cc1cc(NS(=O)(=O)c2ccc(C(C)(C)C)cc2)n(-c2cccc3c[n+]([O-])ccc23)n1`, for which the pEC50 was below 5.60.
In the case of `Cc1cc(NS(=O)(=O)c2cc(F)c(C(C)(C)C)c(F)c2)n(-c2cccc3ncccc23)n1` it was above 6.30.
With `CCOc1ccc(-n2nc(C)cc2NS(=O)(=O)c2ccc(C(C)(C)C)cc2)c2cccnc12`, the pEC50 was 5.60 to 6.30.
In the case of `Cc1cc(NS(=O)(=O)c2ccc(C(C)(C)C)cc2)n(-c2cccc3ncccc23)n1` it was above 6.30; in that of `COc1ccc(-n2nc(C)cc2NS(=O)(=O)c2ccc(C(C)(C)C)cc2)c2cccnc12`, above 6.30; in that of `Cc1cc(-n2nc(C)cc2NS(=O)(=O)c2ccc(C(C)(C)C)cc2)c2cccnc2c1`, 5.60 to 6.30.
Turning to `Cc1cc(NS(=O)(=O)c2ccc(C(C)(C)C)cc2)n(-c2ccc(Br)c3ncccc23)n1`, the pEC50 is 5.60 to 6.30.
In the case of `Cc1cc(NS(=O)(=O)c2ccc(OC(C)C)c(F)c2)n(-c2cccc3ncccc23)n1` it was 5.60 to 6.30.
As to `Cc1cc(NS(=O)(=O)c2ccc(C(C)(C)C)c(F)c2)n(-c2ccc(Br)c3ncccc23)n1`, the pEC50 was above 6.30.
With `Cc1cc(NS(=O)(=O)c2ccc(C(C)(C)C)cc2)n(-c2ccc(N)c3ncccc23)n1`, the pEC50 was above 6.30.
In the case of `Cc1cc(NS(=O)(=O)c2ccc(C(C)(C)C)c(F)c2)n(-c2ccc(C#N)c3ncccc23)n1` it was above 6.30; in that of `Cc1cc(NS(=O)(=O)c2ccc(C(C)(C)C)cc2)n(-c2ccc(C#N)c3ncccc23)n1`, 5.60 to 6.30.

Values taken from patent publication US20180009797A1, “AZA-ARYL 1H-PYRAZOL-1-YL BENZENE SULFONAMIDES” (ChemoCentryx, Inc., priority 2016, published 2018).
